According to patent US9833497B2, “Human originated EGF domain proteins and use of the same” (CHENGDU SOURCEBIO LIMITED-LIABILITY COMPANY, priority 2013, dated 2017):

Columns and labels:
Type in all cases: cell-based
[1] = tested on: E. coli DH5α; test: Antibacterial activity: MIC and growth curve against E. coli DH5α in 96-well plate; settings: minimal inhibitory concentration against E. coli DH5α; 96-well plate, 5×10^5 CFU/mL, 37° C., judged after 8 h
In short: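 Log-phase DH5α (OD600 about 0.5, 37° C, 185 rpm in LB) was pelleted, resuspended in fresh LB and seeded at 5×10^5 CFU/mL with recombinant protein at 50, 25 and 12.5 μg/mL (two-fold series), in triplicate. Plates were shaken at 175 rpm, 37° C, and OD600 was read every 30 min. MIC was the lowest concentration with no growth.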

[2] = tested on: E. coli BL21; test: MIC against Gram-negative bacteria: E. coli BL21; settings: for MIC against E. coli BL21 / MIC (μg/mL) E. coli BL21 / MIC: E. coli BL21
In short: (§1)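 MIC = lowest concentration of recombinant protein showing no growth. Test proteins: purified human-derived EGF domain proteins, two-fold dilution series, three wells per concentration; inoculum 5×10^5 CFU/mL in LB; incubation 37° C with shaking at 175 rpm.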

[3] = tested on: Pseudomonas aeruginosa; test: MIC against Gram-negative bacteria: Pseudomonas aeruginosa; settings: for MIC against P. aeruginosa / MIC (μg/mL) P. aeruginosa: Pseudomonas aeruginosa; for MIC: P. aeruginosa
In short: as §1

[4] = tested on: Klebsiella pneumonia; test: MIC against Gram-negative bacteria: Klebsiella pneumonia; settings: for MIC against K. pneumonia / MIC (μg/mL) K. pneumonia: Klebsiella pneumonia; for MIC: K. pneumonia
In short: as §1

[5] = tested on: Enterobacter cloacae; test: MIC against Gram-negative bacteria: Enterobacter cloacae; settings: for MIC against E. cloacae / MIC (μg/mL) E. cloacae: Enterobacter cloacae; for MIC: E. cloacae
In short: as §1

[6] = tested on: Aeromonas hydrophila; test: MIC against Gram-negative bacteria: Aeromonas hydrophila; settings: for MIC against A. hydrophila / MIC (μg/mL) A. hydrophila: Aeromonas hydrophila; for MIC: A. hydrophila
In short: as §1

[7] = tested on: Citrobacter diversus; test: MIC against Gram-negative bacteria: Citrobacter diversus; settings: for MIC against C. diversus / MIC (μg/mL) C. diversus: Citrobacter diversus; for MIC: C. diversus
In short: as §1

[8] = tested on: Moraxella catarrhalis; test: MIC against Gram-negative bacteria: Moraxella catarrhalis; settings: for MIC against M. catarrhalis / MIC (μg/mL) M. catarrhalis: Moraxella catarrhalis; for MIC: M. catarrhalis
In short: as §1

[9] = tested on: Proteus mirabilis; test: MIC against Gram-negative bacteria: Proteus mirabilis; settings: for MIC against P. mirabilis / MIC (μg/mL) P. mirabilis: Proteus mirabilis; for MIC: P. mirabilis
In short: as §1

[10] = tested on: Proteus vulgaris; test: MIC against Gram-negative bacteria: Proteus vulgaris; settings: for MIC against P. vulgaris / MIC (μg/mL) P. vulgaris: Proteus vulgaris; for MIC: P. vulgaris
In short: as §1

[11] = tested on: Serratia marcescens; test: MIC against Gram-negative bacteria: Serratia marcescens; settings: for MIC against S. marcescens / MIC (μg/mL) S. marcescens: Serratia marcescens; for MIC: S. marcescens
In short: as §1

[12] = 5×10^5 CFU/mL, 10 h cultivation at 37° C.
[13] = 10 h cultivation at 37° C., 5×10^5 CFU/mL, two-fold serial dilution
[14] = 96-well plate, 5×10^5 CFU/mL, 37° C., 10 h

PRT1466 (CSCHTTGAVNHICNSLTGQCVCQDASIAGQRCDQCKDHYFGFDPQTGRCQP; listed as Homo sapiens)
MIC [1]: 50 µg/mL | MIC against E. coli BL21 [2, 12]: 25 µg/mL | MIC against P. aeruginosa [3, 12]: 12.5 µg/mL | MIC against K. pneumonia [4, 12]: 50 µg/mL | MIC against E. cloacae [5, 12]: 12.5 µg/mL | MIC against A. hydrophila [6, 12]: 50 µg/mL | MIC against C. diversus [7, 12]: 12.5 µg/mL | MIC against M. catarrhalis [8, 12]: 50 µg/mL | MIC against P. mirabilis [9, 12]: 25 µg/mL | MIC against P. vulgaris [10, 12]: 12.5 µg/mL | MIC against S. marcescens [11, 12]: 25 µg/mL

PRT1077 (RSHACENDQYGKPGGCSDICLLANSHKARTCRCRSGFSLGSDGKSCK; listed as Homo sapiens)
MIC [1]: 12.5 µg/mL | MIC E. coli BL21 [2, 13]: 12.5 µg/mL | MIC P. aeruginosa [3, 13]: 12.5 µg/mL | MIC K. pneumonia [4, 13]: 50 µg/mL | MIC E. cloacae [5, 13]: 25 µg/mL | MIC A. hydrophila [6, 13]: 25 µg/mL | MIC C. diversus [7, 13]: 25 µg/mL | MIC M. catarrhalis [8, 13]: 25 µg/mL | MIC P. mirabilis [9, 13]: 25 µg/mL | MIC P. vulgaris [10, 13]: 50 µg/mL | MIC S. marcescens [11, 13]: 12.5 µg/mL

PRT19 (CSCDPQGAVRDDCEQMTGLCSCKPGVAGPKCGQCPDGRALGPAGCEA; listed as Homo sapiens)
MIC [1]: 25 µg/mL | MIC (μg/mL) E. coli BL21 [2, 14]: 12.5 µg/mL | MIC (μg/mL) P. aeruginosa [3, 14]: 12.5 µg/mL | MIC (μg/mL) K. pneumonia [4, 14]: 25 µg/mL | MIC (μg/mL) E. cloacae [5, 14]: 50 µg/mL | MIC (μg/mL) A. hydrophila [6, 14]: 12.5 µg/mL | MIC (μg/mL) C. diversus [7, 14]: 25 µg/mL | MIC (μg/mL) M. catarrhalis [8, 14]: 50 µg/mL | MIC (μg/mL) P. mirabilis [9, 14]: 12.5 µg/mL | MIC (μg/mL) P. vulgaris [10, 14]: 25 µg/mL | MIC (μg/mL) S. marcescens [11, 14]: 50 µg/mL

PRT1032 (DVNECDIPGHCQHGGTCLNLPGSYQCQCLQGFTGQYCD; listed as Homo sapiens)
MIC [1]: 50 µg/mL | MIC ([2]; 10 h cultivation at 37° C.): 12.5 µg/mL | MIC ([3]; 10 h cultivation at 37° C.): 50 µg/mL | MIC ([4]; 10 h cultivation at 37° C.): 12.5 µg/mL | MIC ([5]; 10 h cultivation at 37° C.): 50 µg/mL | MIC ([6]; 10 h cultivation at 37° C.): 12.5 µg/mL | MIC ([7]; 10 h cultivation at 37° C.): 25 µg/mL | MIC ([8]; 10 h cultivation at 37° C.): 50 µg/mL | MIC ([9]; 10 h cultivation at 37° C.): 25 µg/mL | MIC ([10]; 10 h cultivation at 37° C.): 12.5 µg/mL | MIC ([11]; 10 h cultivation at 37° C.): 25 µg/mL

PRT85 (KLHFCDSGPCKNSGFCSERWGSFSCDCPVGFGGKDCQ; listed as Homo sapiens)
MIC [1]: 12.5 µg/mL | MIC (μg/mL) E. coli BL21 [2, 14]: 12.5 µg/mL | MIC (μg/mL) P. aeruginosa [3, 14]: 12.5 µg/mL | MIC (μg/mL) K. pneumonia [4, 14]: 12.5 µg/mL | MIC (μg/mL) E. cloacae [5, 14]: 25 µg/mL | MIC (μg/mL) A. hydrophila [6, 14]: 12.5 µg/mL | MIC (μg/mL) C. diversus [7, 14]: 25 µg/mL | MIC (μg/mL) M. catarrhalis [8, 14]: 50 µg/mL | MIC (μg/mL) P. mirabilis [9, 14]: 50 µg/mL | MIC (μg/mL) P. vulgaris [10, 14]: 12.5 µg/mL | MIC (μg/mL) S. marcescens [11, 14]: 50 µg/mL

PRT957 (APPCLDGSPCANGGRCTQLPSREAACLCPPGWVGERCQ; listed as Homo sapiens)
MIC [1]: 12.5 µg/mL | MIC ([2]; 10 h cultivation at 37° C.): 25 µg/mL | MIC ([3]; 10 h cultivation at 37° C.): 50 µg/mL | MIC ([4]; 10 h cultivation at 37° C.): 25 µg/mL | MIC ([5]; 10 h cultivation at 37° C.): 12.5 µg/mL | MIC ([6]; 10 h cultivation at 37° C.): 25 µg/mL | MIC ([7]; 10 h cultivation at 37° C.): 50 µg/mL | MIC ([8]; 10 h cultivation at 37° C.): 12.5 µg/mL | MIC ([9]; 10 h cultivation at 37° C.): 25 µg/mL | MIC ([10]; 10 h cultivation at 37° C.): 50 µg/mL | MIC ([11]; 10 h cultivation at 37° C.): 12.5 µg/mL

PRT1309 (EVDPCAHGHGGCSPHANCTKVAPGQRTCTCQDGYMGDGELCQ; listed as Homo sapiens)
MIC [1]: 12.5 µg/mL | MIC against E. coli BL21 [2, 14]: 50 µg/mL | MIC against P. aeruginosa [3, 14]: 12.5 µg/mL | MIC against K. pneumonia [4, 14]: 50 µg/mL | MIC against E. cloacae [5, 14]: 12.5 µg/mL | MIC against A. hydrophila [6, 14]: 50 µg/mL | MIC against C. diversus [7, 14]: 25 µg/mL | MIC against M. catarrhalis [8, 14]: 12.5 µg/mL | MIC against P. mirabilis [9, 14]: 25 µg/mL | MIC against P. vulgaris [10, 14]: 50 µg/mL | MIC against S. marcescens [11, 14]: 25 µg/mL
